In brackets after ≈: the same amount, converted by molar mass. Blank lines part the entries; values can stand above or below the compound they belong to.
Assays:
Assay in all cases: ≥ marks a high value that may be exact or a test limit, other limits are often not marked, values filed in µg/mL are converted to µM
[1] = tested on: Escherichia coli ATCC 12795
[2] = tested on: Klebsiella pneumoniae ATCC 10031
[3] = tested on: Pseudomonas aeruginosa ATCC 27312
[4] = tested on: Mannheimia haemolytica 82-25
[5] = tested on: Staphylococcus aureus ATCC 29213
[6] = tested on: Serratia marcescens ATCC 14756
[7] = tested on: Candida krusei ATCC 6258
[8] = tested on: Enterococcus faecalis ATCC 29212
[9] = tested on: Klebsiella pneumoniae ATCC 700603
[10] = tested on: Staphylococcus aureus ATCC 43300
[11] = tested on: Staphylococcus aureus VRSA1
[12] = tested on: Enterococcus faecium ATCC 35667
[13] = tested on: Bacillus megaterium ATCC 13632
[14] = tested on: Bacillus subtilis ATCC 6051
[15] = tested on: Escherichia coli ATCC 25922
[16] = tested on: Streptococcus pneumoniae ATCC 700677
[17] = tested on: Cryptococcus neoformans ATCC 208821
[18] = tested on: Pseudomonas aeruginosa ATCC 27853
[19] = tested on: Acinetobacter baumannii ATCC 19606
[20] = tested on: Candida tropicalis ATCC 750
[21] = tested on: Candida albicans ATCC 90028
[22] = tested on: Acinetobacter baumannii
[23] = tested on: Escherichia coli O157:H7
[24] = tested on: Listeria monocytogenes 10403s
[25] = tested on: Staphylococcus aureus ATCC 25923
[26] = tested on: Shigella sonnei ATCC 11060
[27] = tested on: Salmonella enterica subsp. enterica serovar Typhimurium ATCC 13311
[28] = tested on: Vibrio cholerae O1 Inaba
[29] = tested on: Staphylococcus epidermidis ATCC 12228
[30] = tested on: Bacillus cereus ATCC 11778
[31] = tested on: Pseudomonas aeruginosa RP73
[32] = tested on: Salmonella enterica subsp. enterica serovar Typhimurium ATCC 14028
[33] = tested on: Escherichia coli ATCC 35218
[34] = tested on: Salmonella enterica subsp. enterica serovar Enteritidis 706 RIVM
[35] = tested on: Staphylococcus aureus WKZ2
[36] = tested on: Listeria monocytogenes
[37] = tested on: Vibrio anguillarum
[38] = tested on: Salmonella enterica subsp. enterica serovar Typhimurium ATCC 14028s
[39] = tested on: Pseudomonas aeruginosa Z61
[40] = tested on: Aeromonas salmonicida
[41] = tested on: Staphylococcus epidermidis C621
[42] = tested on: Salmonella enterica serovar typhimurium MS7953s
[43] = tested on: Pseudomonas aeruginosa K799

- MIC [1]: ≥ 850 µM
- MIC [2]: ≥ 900 µM
- MIC [3]: ≥ 1500 µM
- MIC [5]: 1800 µM (≈ 1760 µg/mL)
- MIC [6]: ≥ 1500 µM
- MIC [7]: ≥ 5.11 mM
- MIC [8]: 1800 µM (≈ 1760 µg/mL)
SMILES: C[C@H](N)C(=O)N[C@@H](CC(=O)O)C(=O)N[C@@H](C)C(=O)N[C@@H](CC(=O)O)C(=O)N[C@@H](CC(=O)O)C(=O)N[C@@H](CC(=O)O)C(=O)N[C@@H](CC(=O)O)C(=O)N[C@@H](CC(=O)O)C(=O)N[C@@H](CCCCN)C(=O)O [ADADDDDDK]
- MIC [4]: ≥ 230 µM

- MIC [9]: > 167 µM
- MIC [10]: > 83.3 µM
- MIC [11]: ≥ 83.3 µM
- MIC [12]: ≥ 41.7 µM
- MIC [13]: 29.5 µM (≈ 45.2 µg/mL)
- MIC [5]: > 83.3 µM
- MIC [14]: ≥ 41.7 µM
- MIC [15]: > 167 µM
- MIC [16]: ≥ 83.3 µM
- MIC [17]: 14.7 µM (≈ 22.6 µg/mL)
- MIC [18]: > 167 µM
- MIC [19]: > 167 µM
- MIC [20]: ≥ 83.3 µM
- MIC [21]: ≥ 83.3 µM
SMILES: CC[C@H](C)[C@H](N)C(=O)N[C@@H](Cc1ccccc1)C(=O)N[C@@H](Cc1c[nH]c2ccccc12)C(=O)N[C@@H](CC(C)C)C(=O)N[C@@H](Cc1ccccc1)C(=O)N[C@@H](CCCN=C(N)N)C(=O)NCC(=O)N[C@@H](CCCCN)C(=O)N[C@@H](C)C(=O)N[C@@H](CC(=O)O)C(=O)N[C@H](C(=O)N[C@@H](C)C(=O)N[C@@H](CC(C)C)C(N)=O)C(C)C [IFWLFRGKADVAL]

- MIC [22]: 1.96 µM (≈ 3.91 µg/mL)
- MIC [23]: 7.82 µM (≈ 15.6 µg/mL)
- MIC [24]: 0.976 µM (≈ 1.95 µg/mL)
- MIC [25]: 3.91 µM (≈ 7.81 µg/mL)
- MIC [15]: 7.82 µM (≈ 15.6 µg/mL)
- MIC [26]: 1.96 µM (≈ 3.91 µg/mL)
- MIC [18]: 3.91 µM (≈ 7.81 µg/mL)
- MIC [27]: 0.976 µM (≈ 1.95 µg/mL)
- MIC [29]: 1.96 µM (≈ 3.91 µg/mL)
- MIC [8]: 15.6 µM (≈ 31.2 µg/mL)
- MIC [30]: 1.96 µM (≈ 3.91 µg/mL)
SMILES: CC[C@H](C)[C@H](NC(=O)[C@H](CCCN=C(N)N)NC(=O)[C@H](CCCCN)NC(=O)[C@H](C)NC(=O)[C@@H](NC(=O)[C@@H](N)CCCCN)[C@@H](C)CC)C(=O)N[C@@H](Cc1c[nH]c2ccccc12)C(=O)N[C@@H](CCCCN)C(=O)N[C@H](C(=O)N[C@@H](CC(C)C)C(=O)N[C@@H](CCCN=C(N)N)C(=O)N[C@@H](CCCN=C(N)N)C(=O)N[C@@H](CCCN=C(N)N)C(=O)N[C@@H](CC(C)C)C(=O)N[C@@H](Cc1ccccc1)C(N)=O)[C@@H](C)CC [KIAKRIWKILRRRLF]
- MIC [28]: 1.96 µM (≈ 3.91 µg/mL)

- MIC [31]: 12.5 µM (≈ 38.9 µg/mL)
- MIC [32]: > 12.5 µM
- MIC [15]: 25 µM (≈ 77.8 µg/mL)
- MIC [33]: 25 µM (≈ 77.8 µg/mL)
- MIC [34]: ≥ 50 µM
- MIC [35]: 25 µM (≈ 77.8 µg/mL)
- MIC [36]: ≥ 50 µM
- MIC [8]: 50 µM (≈ 156 µg/mL)
SMILES: CC[C@H](C)[C@H](NC(=O)[C@@H]1CCCN1)C(=O)N[C@@H](CCSC)C(=O)N[C@@H](Cc1ccc(O)cc1)C(=O)N[C@@H](CCCCN)C(=O)N[C@H](C(=O)N1CCC[C@H]1C(=O)N[C@@H](CC(C)C)C(=O)N[C@H](C(=O)N[C@@H](CCCN=C(N)N)C(=O)N[C@@H](CCCCN)C(=O)N[C@@H](CCCCN)C(=O)N[C@@H](CO)C(=O)N[C@@H](CC(C)C)C(=O)N[C@@H](CCCN=C(N)N)C(=O)N[C@@H](CCCN=C(N)N)C(=O)N[C@H](C(=O)N[C@@H](CC(C)C)C(=O)N[C@@H](CO)C(=O)N[C@@H](CCC(=O)O)C(=O)N[C@@H](CCCN=C(N)N)C(=O)NCC(=O)N[C@@H](CC(C)C)C(=O)N[C@@H](CC(C)C)C(=O)N[C@@H](CCCCN)C(=O)N[C@@H](CC(=O)O)C(=O)O)[C@@H](C)O)[C@@H](C)CC)C(C)C [PIMYKVPLIRKKSLRRTLSERGLLKD]

- MIC [37]: 23.7 µM (≈ 64 µg/mL)
- MIC [38]: 23.7 µM (≈ 64 µg/mL)
- MIC [39]: 23.7 µM (≈ 64 µg/mL)
- MIC [40]: 2.96 µM (≈ 8 µg/mL)
- MIC [41]: 23.7 µM (≈ 64 µg/mL)
- MIC [42]: 0.739 µM (≈ 2 µg/mL)
- MIC [43]: 23.7 µM (≈ 64 µg/mL)
SMILES: CC[C@H](C)[C@H](NC(=O)[C@@H](N)CO)C(=O)NCC(=O)N[C@@H](CO)C(=O)N[C@@H](C)C(=O)N[C@@H](Cc1ccccc1)C(=O)N[C@@H](CCCCN)C(=O)N[C@@H](CCCCN)C(=O)N[C@@H](C)C(=O)N[C@@H](C)C(=O)N[C@@H](Cc1cnc[nH]1)C(=O)N[C@H](C(=O)NCC(=O)N[C@@H](CCCCN)C(=O)N[C@@H](Cc1cnc[nH]1)C(=O)N[C@H](C(=O)NCC(=O)N[C@@H](CCCCN)C(=O)N[C@@H](C)C(=O)N[C@@H](C)C(=O)N[C@@H](CC(C)C)C(=O)N[C@H](C(=O)N[C@@H](Cc1cnc[nH]1)C(=O)N[C@@H](Cc1ccc(O)cc1)C(=O)N[C@@H](CC(C)C)C(=O)N[C@@H](CC(N)=O)C(=O)O)[C@@H](C)O)C(C)C)C(C)C [SIGSAFKKAAHVGKHVGKAALTHYLN]
